Results: paper PMC2778353, “Toxicity of Xanthene Food Dyes by Inhibition of Human Drug-Metabolizing Enzymes in a Noncompetitive Manner” (Journal of Environmental and Public Health, 2009)
Where two headings read alike, the source gives them in different places. Values belong to the compound of their own block, whether it stands above or below them.

How the values were obtained:
P-glycoprotein = P-glycoprotein (Homo sapiens, UniProt P08183); assay: in vitro
Method: (§1) These enzymes were stored at −80°C. Superoxide dismutase (SOD) and catalase are products of Sigma.

CYP3A4 = target: T1, CYP3A4 (Homo sapiens, UniProt P08684); assay: Inhibition of CYP3A4 activity in pooled human liver microsomes (7-benzoyloxy-4-(trifluoromethyl)-coumarin substrate); format: biochemical; details: for IC50: pooled human liver microsomes
T1 construct: pooled human liver microsomes (HLMs), purchased from Gentest; tissue Gentest (Woburn, MA, USA); host or cells: pooled human liver microsomes
T1 sequence (P08684 whole entry): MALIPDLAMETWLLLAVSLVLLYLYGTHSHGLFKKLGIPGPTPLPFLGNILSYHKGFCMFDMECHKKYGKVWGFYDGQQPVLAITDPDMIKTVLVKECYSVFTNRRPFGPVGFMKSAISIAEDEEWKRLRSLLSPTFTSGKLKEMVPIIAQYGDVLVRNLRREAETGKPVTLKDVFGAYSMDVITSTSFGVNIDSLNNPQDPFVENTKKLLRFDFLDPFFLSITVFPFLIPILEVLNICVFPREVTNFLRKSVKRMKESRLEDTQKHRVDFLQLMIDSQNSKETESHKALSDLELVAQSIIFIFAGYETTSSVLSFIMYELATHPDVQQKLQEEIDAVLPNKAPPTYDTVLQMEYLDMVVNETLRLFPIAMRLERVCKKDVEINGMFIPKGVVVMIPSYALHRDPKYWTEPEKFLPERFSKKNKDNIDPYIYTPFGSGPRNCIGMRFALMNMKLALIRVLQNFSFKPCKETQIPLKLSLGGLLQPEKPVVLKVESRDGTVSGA
Method: as §1
CYP3A4 is a major enzyme among phase I drug-metabolizing enzymes and reacts with half of all drugs. To determine the influence of CYP3A4 activity by food dyes, the color of dyes influencing the fluorometric measurement over 30 μM dye concentration was measured. This background was subtracted from the measurement of color pigments.

UGT1A6 [1] = target: T2, UGT1A6 (Homo sapiens, UniProt P19224); assay: Inhibition of UGT1A6 activity (glucuronidation of p-nitrophenol) in pooled human liver microsomes; details: for Difference of UGT1A6 activity between dark and light: 0.3 mM p-NP
T2 sequence (P19224 27-532): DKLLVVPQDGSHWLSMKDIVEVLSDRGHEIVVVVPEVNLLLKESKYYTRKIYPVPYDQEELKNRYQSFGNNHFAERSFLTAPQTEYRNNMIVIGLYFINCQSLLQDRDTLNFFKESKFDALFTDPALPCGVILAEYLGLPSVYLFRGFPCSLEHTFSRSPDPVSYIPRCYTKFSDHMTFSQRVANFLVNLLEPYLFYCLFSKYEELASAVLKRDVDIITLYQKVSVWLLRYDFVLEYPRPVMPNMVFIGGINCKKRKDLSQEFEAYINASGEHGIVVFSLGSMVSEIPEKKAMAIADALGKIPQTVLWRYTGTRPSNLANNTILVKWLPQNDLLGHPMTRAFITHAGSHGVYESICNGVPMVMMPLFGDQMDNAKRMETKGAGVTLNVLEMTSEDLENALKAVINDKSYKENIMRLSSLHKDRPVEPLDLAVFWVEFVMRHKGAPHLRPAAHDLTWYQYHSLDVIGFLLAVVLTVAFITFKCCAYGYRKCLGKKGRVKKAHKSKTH
Method: (§2) The enzyme source to measure CYP2A6, CYP3A4, and UGT1A6 activities was pooled human liver microsomes (HLMs), purchased from Gentest (Woburn, MA, USA). […] These enzymes were stored at −80°C.
(§3) The microassay method of UGT activity in this study was carried out according to previous reports [5, 51]. […] In order to investigate the role of reactive oxygen species on the inhibition of UGT1A6 by dyes, we studied the effect of SOD and catalase.
(§4) The inhibition of UGT1A6 activity with p-nitrophenol [5] and of UGT2B7 with androsterone by dyes was studied.

UGT2B7 = target: T3, UGT2B7 (Homo sapiens, UniProt P16662); assay: Inhibition of UGT2B7 activity (glucuronidation of androsterone), Sf9 cell membrane; format: biochemical
T3 construct: purchased Gentest; host or cells: Sf9 cells, baculovirus expression system
T3 sequence (P16662 24-529): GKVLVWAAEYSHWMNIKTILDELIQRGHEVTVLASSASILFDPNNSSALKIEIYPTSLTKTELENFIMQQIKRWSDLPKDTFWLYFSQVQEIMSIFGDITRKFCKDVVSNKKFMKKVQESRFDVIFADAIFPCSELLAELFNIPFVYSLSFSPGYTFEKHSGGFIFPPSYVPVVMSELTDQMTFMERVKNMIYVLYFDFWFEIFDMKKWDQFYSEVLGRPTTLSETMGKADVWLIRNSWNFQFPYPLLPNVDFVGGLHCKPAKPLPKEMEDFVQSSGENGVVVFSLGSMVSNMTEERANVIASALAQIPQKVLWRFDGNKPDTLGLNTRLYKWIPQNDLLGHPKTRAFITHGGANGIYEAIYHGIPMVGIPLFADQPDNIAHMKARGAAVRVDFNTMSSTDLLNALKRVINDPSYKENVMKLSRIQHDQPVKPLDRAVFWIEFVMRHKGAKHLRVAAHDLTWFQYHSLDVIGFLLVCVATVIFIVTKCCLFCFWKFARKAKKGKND
Method: as §1

[2] = target: P-glycoprotein (ATPase activity) (Homo sapiens, UniProt P08183); assay: in vitro; details: human
Sequence of P-glycoprotein (ATPase activity) (P08183 whole entry): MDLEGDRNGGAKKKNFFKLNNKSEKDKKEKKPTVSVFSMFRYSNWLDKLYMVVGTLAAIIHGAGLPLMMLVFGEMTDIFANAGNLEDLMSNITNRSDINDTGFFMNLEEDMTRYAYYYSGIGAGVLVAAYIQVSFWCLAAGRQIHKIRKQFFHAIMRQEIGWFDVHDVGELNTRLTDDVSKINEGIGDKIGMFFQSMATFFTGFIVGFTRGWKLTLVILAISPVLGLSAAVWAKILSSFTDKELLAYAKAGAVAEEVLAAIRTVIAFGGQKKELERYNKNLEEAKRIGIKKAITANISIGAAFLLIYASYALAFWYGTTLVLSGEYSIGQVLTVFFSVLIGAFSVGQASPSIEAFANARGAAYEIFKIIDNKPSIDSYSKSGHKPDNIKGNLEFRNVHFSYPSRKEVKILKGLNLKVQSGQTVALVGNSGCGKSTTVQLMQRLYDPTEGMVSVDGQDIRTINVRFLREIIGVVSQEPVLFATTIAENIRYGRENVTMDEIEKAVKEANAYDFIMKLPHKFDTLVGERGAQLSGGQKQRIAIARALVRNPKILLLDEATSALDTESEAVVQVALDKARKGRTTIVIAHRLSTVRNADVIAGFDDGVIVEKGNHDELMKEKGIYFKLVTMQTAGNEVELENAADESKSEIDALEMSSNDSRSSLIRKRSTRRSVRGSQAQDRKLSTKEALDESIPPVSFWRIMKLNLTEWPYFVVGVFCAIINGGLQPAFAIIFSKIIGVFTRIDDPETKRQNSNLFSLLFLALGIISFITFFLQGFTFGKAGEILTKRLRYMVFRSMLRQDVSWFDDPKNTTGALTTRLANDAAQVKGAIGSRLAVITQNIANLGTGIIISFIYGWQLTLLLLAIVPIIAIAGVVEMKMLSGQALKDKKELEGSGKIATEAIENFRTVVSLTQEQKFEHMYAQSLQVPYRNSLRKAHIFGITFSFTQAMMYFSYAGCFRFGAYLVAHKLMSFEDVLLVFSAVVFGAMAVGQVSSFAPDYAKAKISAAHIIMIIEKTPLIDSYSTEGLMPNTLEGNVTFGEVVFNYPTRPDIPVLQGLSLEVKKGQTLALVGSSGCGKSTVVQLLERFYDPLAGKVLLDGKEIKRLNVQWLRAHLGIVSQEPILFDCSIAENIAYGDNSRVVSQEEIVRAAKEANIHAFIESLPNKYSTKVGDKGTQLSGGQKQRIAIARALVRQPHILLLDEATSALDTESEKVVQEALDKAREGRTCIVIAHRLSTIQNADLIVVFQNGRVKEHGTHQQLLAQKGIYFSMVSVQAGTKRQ
Method: as §1

UGT1A6 [3] = target: T2, UGT1A6; assay: in vitro
Method: as §2, §3, §4

[4] = read-out: IC50 value P-glycoprotein, ATPase activity of P-gp membrane
[5] = human, pooled human liver microsomes, probe p-nitrophenol
[6] = glucuronidation inhibition by RB
[7] = human, probe 7-benzoyloxy-4-(trifluoromethyl)-coumarin

Sequence of P-glycoprotein (P08183 whole entry): as above

Compound: O=C([O-])C1=NN(c2ccc(S(=O)(=O)[O-])cc2)C(=O)C1N=Nc1ccc(S(=O)(=O)[O-])cc1.[Na+].[Na+].[Na+] (stereo not drawn) [Tartrazine (TT), tartrazine]
IC50 (P-glycoprotein): > 1000 µM
IC50 (CYP3A4): > 1000 µM
Inhibition of UGT1A6 activity (in words) (UGT1A6 [1]): no inhibition

IC50 (P-glycoprotein): > 1000 µM
IC50 (CYP3A4): > 1000 µM
Inhibition of UGT1A6 activity (in words) (UGT1A6 [1]): no inhibition
Compound: O=C1/C(=C2\Nc3ccc(S(=O)(=O)[O-])cc3C2=O)Nc2ccc(S(=O)(=O)[O-])cc21.[Na+].[Na+] [Indigo carmine (ID), indigo carmine]

IC50 (P-glycoprotein): > 1000 µM
Inhibition of CYP3A4 (in words) (CYP3A4): noninhibition
IC50 (CYP3A4): > 1000 µM
Inhibition of UGT1A6 activity (in words) (UGT1A6 [1]): insignificant inhibition
Compound: O=S(=O)([O-])c1ccc2c(N=Nc3ccc(S(=O)(=O)[O-])c4ccccc34)c(O)c(S(=O)(=O)[O-])cc2c1.[Na+].[Na+].[Na+] [Amaranth (AM), amaranth]

Inhibition of UGT1A6 activity (in words) (UGT1A6 [1]): no inhibition
Compound: CC(=O)N(CC(O)CN(C(C)=O)c1c(I)c(C(=O)NCC(O)CO)c(I)c(C(=O)NCC(O)CO)c1I)c1c(I)c(C(=O)NCC(O)CO)c(I)c(C(=O)NCC(O)CO)c1I (stereo not drawn) [iodixanol, reference compound]

Inhibition of UGT1A6 activity (in words) (UGT1A6 [1]): no inhibition
Compound: CNC(=O)c1c(I)c(NC(C)=O)c(I)c(C(=O)O)c1I.CNC[C@H](O)[C@@H](O)[C@H](O)[C@H](O)CO [meglumine iotalamate, reference compound]

IC50 (UGT1A6 [1]): > 1000 µM
Inhibition of UGT1A6 activity (in words) (UGT1A6 [1]): did not inhibit
Compound: CCN(CC)c1ccc2c(-c3ccccc3C(=O)O)c3ccc(=[N+](CC)CC)cc-3oc2c1 [rhodamine, reference compound]

Compound: COc1cc(S(=O)(=O)[O-])c(C)cc1N=Nc1c(O)ccc2cc(S(=O)(=O)[O-])ccc12.[Na+].[Na+] [Allura red (AL), allura red]
IC50 (P-glycoprotein; [4]): > 1000 µM
IC50 (CYP3A4): > 1000 µM
Inhibition of UGT1A6 activity (in words) (UGT1A6 [1]): insignificant inhibition

Prevention of ET inhibition of UGT1A6 (UGT1A6 [1]; added to the mixture of UGT1A6 inhibition by ET): no prevention
Compound: catalase

Compound: O=C1OC2(c3ccccc31)c1cc(I)c(O)c(I)c1Oc1c2cc(I)c(O)c1I [Erythrosine B (ET), erythrosine]
IC50 (P-glycoprotein): 15.6 µM
Inhibition of P-gp (in words) (P-glycoprotein): well inhibited
Type of inhibition of UGT2B7 (UGT2B7): non-competitive
Inhibition of UGT2B7 (in words) (UGT2B7; androsterone glucuronidation): inhibited
Inhibition of CYP3A4 at 30 μM (CYP3A4; 30 μM dye): completely inhibited
IC50 (UGT1A6 [1]): 50 µM
Inhibition of UGT1A6 activity (in words) (UGT1A6 [1]): greatest inhibition
Substrate activity for UGT1A6 (UGT1A6 [1]): no substrate activity
Type of inhibition of UGT1A6 (Lineweaver-Burk plots) (UGT1A6 [1]): non-competitive
IC50 (UGT1A6 [1]; [5]): 70 µM

Inhibition of UGT1A6 activity (in words) (UGT1A6 [1]): no inhibition
Compound: CC(=O)Nc1c(I)c(NC(C)=O)c(I)c(C(=O)[O-])c1I.[Na+] [sodium diatrizoate, reference compound]

Compound: O=S(=O)([O-])c1ccc(N=Nc2c(O)ccc3cc(S(=O)(=O)[O-])ccc23)cc1.[Na+].[Na+] [Sunset yellow FCF (SY), sunset yellow FCF]
IC50 (P-glycoprotein; [4]): > 1000 µM
IC50 (CYP3A4): > 1000 µM
Inhibition of UGT1A6 activity (in words) (UGT1A6 [1]): no inhibition

Inhibition of glucuronidation of p-NP by UGT1A6 by quencher itself (UGT1A6 [1]; 1 to 20 mM): no inhibition
Prevention of RB inhibition of UGT1A6 by 1O2 quencher (UGT1A6 [1]; [6]): significantly prevented
Compound: N[C@@H](Cc1c[nH]cn1)C(=O)O [histidine, reference compound]

Compound: O=S(=O)(O)c1cc(S(=O)(=O)O)c2c(N=Nc3ccc(S(=O)(=O)O)c4ccccc34)c(O)ccc2c1 [New coccine (NC), new coccine]
IC50 (P-glycoprotein; [4]): > 1000 µM
IC50 (CYP3A4): > 1000 µM
IC50 (UGT1A6 [1]; read-out: IC50 value UGT1A6, pooled human liver microsomes, p-nitrophenol glucuronidation): > 1000 µM

IC50 (P-glycoprotein): > 1000 µM
IC50 (CYP3A4): > 1000 µM
Inhibition of UGT1A6 activity (in words) (UGT1A6 [1]): insignificant inhibition
Compound: CCN(Cc1cccc(S(=O)(=O)[O-])c1)c1ccc(C(=C2C=CC(=[N+](CC)Cc3cccc(S(=O)(=O)[O-])c3)C=C2)c2ccccc2S(=O)(=O)[O-])cc1.[Na+].[Na+] [Brilliant blue FCF (BB), brilliant blue FCF]

Inhibition of UGT1A6 activity (in words) (UGT1A6 [1]): did not inhibit
IC50 (UGT1A6 [1]; [5]): > 1000 µM
Compound: O=C(O)c1ccccc1-c1c2ccc(=O)cc-2oc2cc(O)ccc12 [Uranine, reference compound]

Inhibition of glucuronidation of p-NP by UGT1A6 by quencher itself (UGT1A6 [1]; 0.2–0.5 mM): no inhibition
Prevention of RB inhibition of UGT1A6 by 1O2 quencher (UGT1A6 [1]; [6]): did not
Compound: CC1=C(/C=C/C(C)=C/C=C/C(C)=C/C=C/C=C(C)/C=C/C=C(C)/C=C/C2=C(C)CCCC2(C)C)C(C)(C)CCC1 [β-carotene, reference compound]

Compound: O=C(O)c1c(Cl)c(Cl)c(Cl)c(Cl)c1-c1c2cc(I)c(=O)c(I)c-2oc2c(I)c(O)c(I)cc12 [Rose Bengal (RB), rose bengal]
IC50 [2]: 11.7 µM
Inhibition of P-gp (in words) (P-glycoprotein): well inhibited
Type of inhibition of UGT2B7 (UGT2B7): non-competitive
Inhibition of CYP3A4 (in words) (CYP3A4): showed inhibition
IC50 (CYP3A4; [7]): 21.2 µM
Type of inhibition of UGT1A6 (Lineweaver-Burk plots) (UGT1A6 [1]): non-competitive
Difference of UGT1A6 activity between dark and light (UGT1A6 [1]; 0.1 mM RB): could not find a significant difference
Difference of UGT1A6 activity between dark and light (UGT1A6 [1]; 0.01, 0.02, and 0.05 mM RB): significant difference
UGT1A6 activity in D2O relative to H2O in presence of RB (UGT1A6 [1]; D2O solution versus water): approximately half
IC50 (UGT1A6 [1]; [5]): 15 µM

IC50 (UGT1A6 [1]; [5]): 70 µM
Compound: O=C(O)c1cc(N=C=S)ccc1-c1c2cc(Br)c(=O)c(Br)c-2oc2c(Br)c(O)c(Br)cc12 [Dye E5ic, Eosin-5-isothiocyanate, reference compound]

IC50 (UGT1A6 [1]): > 1000 µM
Inhibition of UGT1A6 activity (in words) (UGT1A6 [1]): did not inhibit
Compound: c1ccc2c(c1)Cc1ccccc1O2 [Xanthene]

Compound: O=C(O)c1c(Cl)c(Cl)c(Cl)c(Cl)c1-c1c2cc(Br)c(=O)c(Br)c-2oc2c(Br)c(O)c(Br)cc12 [Phloxine (PL), phloxine]
IC50 [2]: 24.5 µM
Inhibition of P-gp (in words) (P-glycoprotein): well inhibited
IC50 (UGT1A6 [3]): 40 µM
Type of inhibition of UGT2B7 (UGT2B7): non-competitive
Inhibition of CYP3A4 (in words) (CYP3A4): showed inhibition
IC50 (CYP3A4; [7]): 5.6 µM
Type of inhibition of UGT1A6 (Lineweaver-Burk plots) (UGT1A6 [1]): non-competitive

Compound: [N-]=[N+]=[N-].[Na+] [NaN3, reference compound]
Prevention of RB inhibition of UGT1A6 by 1O2 quencher (UGT1A6 [1]): significantly prevented
Inhibition of glucuronidation of p-NP by UGT1A6 by quencher itself (UGT1A6 [1]; 1 to 20 mM): no inhibition
